Consider four compounds from patent US6706509B2, “Oncoprotein protein kinase” (The Regents of the University of California, priority 1993, dated 2004).

Holding throughout (type): cell-based, human
Assay [1] has as its system Ha-Ras. The experiment in a line: GTP content of Ha-Ras in 32P-labelled Jurkat cells. The note with it: for Ha-Ras activation measured by increase in GTP content, agent alone: 10 ng/ml TPA, 1 μg/ml anti-CD3 or 2 μg/ml anti-CD28, 2 minutes. The procedure:
Jurkat cells 10×10^6 were labelled for 3 hours with ^32P-orthophosphate (ICN Radiochemicals) at 1 mCi/ml in 5 mM of Na3VO4 phosphate-free DMEM supplemented with 1 mg/ml BSA. Before harvest, cells were stimulated with TPA, 10 ng/ml, A23187, 1 μg/ml anti-CD3 antibody (OKT3), 10 μg/ml, anti-CD28 antibody, 2 μg/ml or their combinations. After treatment for a specified period, cells were washed once immediately with ice cold PBS, twice with ice-cold Tris-Buffered saline (50 mM Tris-HCl, pH 7.5, 20 mM MgCl2, 150 mM NaCl, […] Nonidet P-40/1 μg/ml of aprotinin, leupeptin, pepstatin and 1 mM phenylmethyl sulfonylfluoride). Ras p21 was immunoprecipitated with monoclonal antibody […] (Santa Cruz Biotechnology, Inc., Santa Cruz, Calif.). The GDP/GTP content of Ras was analyzed by TLC as described (Satoh, et al., Proc. Natl. Acad. Sci., USA, 15:5993, 1990) and quantitated with an Ambis radioanalytic image system (Ambis, San Diego, Calif.).
Jurkat cells (2×10^6 cells per point) labeled with 0.4 mCi of ^32P-orthophosphate for 3 hours were incubated with nonspecific antibody (1 μg/ml mouse IgG; control), 1 μg/ml anti-CD3, 2 μg/ml anti-CD28, 10 ng/ml TPA or 500 ng/ml A23187 (A), as indicated. After 2 minutes, the cells were harvested, lysed and Ha-Ras was isolated by immunoprecipitation. The guanine nucleotide bound to Ha-Ras were extracted, separated by thin layer chromatography and quantitiated as described in EXAMPLE 9. The values shown represent the averages of two separate experiments done in duplicates. Jurkat cells were labeled with ^32P-orthophosphate and stimulated with either TPA or anti-CD3 as described above. At the indicated time points, the cells were harvested and the GTP content of Ha-Ras was determined as described directly above.

For assay [2], the system named is ERK2. Kind of assay: ERK2 MBP-kinase activity after anti-ERK2 immunoprecipitation, Jurkat cells. The procedure:
WCE (50 μg) of Jurkat cells treated as described above were incubated with GSTcJun(1-223)-GSH agarose beads and assayed for JNK activity using the solid-state kinase assay. The same WCE (20 μg) were immunoprecipitated with anti-ERK2 antibodies and assayed for MBP-kinase activity.
WCE (50 μg) of Jurkat cells treated as described in Panel A with various stimuli alone or their combinations were incubated with GSTcJun(1-223)-GSH agarose beads and assayed for JNK activity using solid-state kinase assay. The same samples (20 μg) were also assayed for MBP-kinase activity as described in FIG. 16B.

The test system of assay [3] is c-jun. Kind of assay: Northern blot of c-jun expression in Jurkat cells. On the procedure:
(§1) Exponentially growing Jurkat cells (10^6/ml) grown in complete RPMI medium was pretreated with CsA for 15 minutes when applicable, then subjected to various treatments for another 40 minutes. Total cytoplasmic RNA was extracted as previously described (Angel, et al., Cell, 49:729-739, 1987). 10 μg RNA was denatured by incubating with glyoxal for 60 minutes at 55° C. and fractionated on a 1% agarose gel in phosphate buffer. The fractionated RNA was blotted to Zetabind Nylon membrane (CUNO Labs) and hybridized to ^32P-labelled cDNA probes specific for c-jun, jun-B, jun-D, c-fos, α-tubulin and IL-2.
(§2) During the first stage of T lymphocyte activation, early response genes are rapidly included (Crabtree, Science, 243:355,361, 1989; Zipfel, et al., Mol Cell Bio., 9:1041-1048, 1989). […] After fractionation of 10 μg samples on an agarose gel and transfer to nylon membrane, the level of c-jun, jun-B, jun-D, c-fos and α-tubulin expression was determined by hybridization to random primed cDNA probes.
(§3) Second, Jurkat cells were incubated with 10 μg/ml soluble anti-CD3 (OKT3), 2 μg/ml soluble anti-CD28 (9.3) or a combination of 50 ng/ml TPA and 1 μg/ml A23817 (T/A) as indicated for 40 minutes. Total cytoplasmic RNA was isolated and 10 μg samples were analyzed as described above using c-jun, jun-D and c-fos probes. […]

Assay [4] concerns c-fos. Kind of assay: Northern blot of c-fos expression in Jurkat cells. On the procedure:
as §1, §2, §3

As for `CNc1ccc2oc(C[C@H]3O[C@@]4(CC[C@H]3C)O[C@H]([C@H](C)C(=O)c3ccc[nH]3)[C@H](C)C[C@H]4C)nc2c1C(=O)O` [A23187], the “Ha-Ras activation by anti-CD3 or TPA, costimulation with anti-CD28 or A23187, respectively” value in assay [1] is on record as “not augmented”.

Take `CCCCCCCCCCCCCC(=O)O[C@@H]1[C@@H](C)[C@@]2(O)[C@@H](C=C(CO)C[C@]3(O)C(=O)C(C)=C[C@@H]23)[C@H]2C(C)(C)[C@]12OC(C)=O` [TPA]: the “ERK2 activation, suboptimal dose of TPA by itself” value in assay [2] is “partial activation of ERK2”. Further, the “Ha-Ras activation measured by increase in GTP content, agent alone” value in assay [1] is listed as “activation of Ha-Ras”. For the same compound, in assay [1] (TPA), the “persistence of Ha-Ras activation” value is “at least 20 minutes”.

Take “anti-CD3: anti-CD3 monoclonal antibody OKT3”: the “c-jun expression, agent alone” value in assay [3] (soluble anti-CD3, 40 minutes) was “induction”. For the same compound, the “Ha-Ras activation measured by increase in GTP content, agent alone” value in assay [1] is “activation of Ha-Ras”. In assay [1] (soluble anti-CD3), the “time course of Ha-Ras response” value is given as “highly transient”. In addition, the “c-fos expression, agent alone” value in assay [4] (soluble anti-CD3, 40 minutes) is on record as “induction”.

Take cyclosporin A [CsA]: the “effect on synergistic induction of c-jun by both costimulatory paradigms” value in assay [3] (CsA 100 ng/ml with TPA+A23187 or anti-CD3+anti-CD28, 40 minutes) is “partially inhibited”. The “ERK2 activation by anti-CD3, effect of CsA” value in assay [2] (CsA 100 ng/ml) is “nor was it inhibited”. The “effect on maximal induction of c-fos by TPA+A23187” value in assay [4] (CsA 100 ng/ml, 40 minutes) is “not inhibited”.
